The source of these data is paper PMC12430443, “Discovery of Novel Benzamide-Based Sigma-1 Receptor Agonists with Enhanced Selectivity and Safety” (Molecules, 2025).

A word on the pIC50: it is the negative decadic logarithm of the IC50, by convention in mol/L. The term Ki denotes the dissociation constant of the complex between target and ligand, obtained from inhibition or displacement. A low value points to tighter binding.

For one data set, the target named is T1, S1R (Homo sapiens, UniProt Q99720).
T1 construct: For the S1R assay, Jurkat cell membranes (10–20 μg protein/tube) were incubated at 37 °C for 2 h; host or cells: Jurkat cell membranes
Put plainly: S1R competitive radioligand binding, [3H](+)-pentazocine, Jurkat cell membranes. As to conditions: for pIC50: [3H]-(+)-pentazocine displacement, n = 2; for pIC50 / Ki: Jurkat cell membranes; for Ki (S2R)/ Ki (S1R): selectivity ratio S2R/S1R; for Ki: [3H](+)-pentazocine, mean of 2–3 independent experiments. From the text:
(§1) S1R and S2R affinities were classically evaluated through competitive binding assays using radioligands, following the protocol described by Ganapathy et al.. The selective radioligand [^3H] (+)-pentazocine was employed as the classic prototypical ligand, selectively binding to the orthosteric S1R-binding sites. […] Jurkat cell membranes served as the receptor source in both assays. The equilibrium dissociation constants (Ki) for S1R and S2R were derived from the IC50 values of each compound, and selectivity ratios (S2R/S1R) were subsequently calculated (Table 1, Figures S2 and S3).
(§2) Binding assays were performed by Eurofins Cerep (Poitiers, France) according to the protocol of Ganapathy. […] For the S2R assay, Jurkat cell membranes (10–20 μg protein/tube) were incubated at room temperature for 1 h in the same buffer with [^3H]-DTG (25 nM) in the presence of (+)-pentazocine (1 μM) to saturate S1R, along with a range of test compound concentrations. Bound radioactivity was quantified by liquid scintillation counting. Nonspecific binding was determined under identical conditions in the presence of 10 μM unlabeled haloperidol. The IC50 values (concentration causing a half-maximal inhibition of control-specific binding) and Hill coefficients (nH) were determined by non-linear regression analysis of the competition curves generated with mean replicate values using Hill equation curve-fitting. This analysis was performed using software developed at Cerep (Hill software) and validated by comparison with data generated by the commercial software SigmaPlot ®4.0 for Windows® (©1997 by SPSS Inc.). Inhibition constants (Ki) were calculated from IC50 values using the method of Cheng and Prusoff.

In another data set the target is serotonin 5-HT3 receptor (Homo sapiens, UniProt P46098). Briefly: Off-target panel, aequorin functional assay. It counts as cell-based. As to conditions: 10 µM, duplicate; % inhibition of reference agonist activity. As for the experimental part:
(§3) Among the synthesized compounds, four derivatives were selected based on their affinity and selectivity profiles. […] The remaining compounds (2, 3, 6, and 7) were assessed for their agonist and antagonist activities across a panel of 58 receptors relevant to CNS disorders, including serotonin, adenosine, adrenergic, cannabinoid, dopamine, histamine, and muscarinic receptors. These assays were conducted at a concentration of 10 µM, in duplicate, utilizing aequorin [19], cAMP HTRF™ [20], and GTPγS binding assays, as detailed in Table 2. […] Specifically, compound 6 antagonized four receptors (5-HT2A, 5-HT2C, α1a, H1), while compound 7 was active against five receptors (5-HT2A, 5-HT3, α1a, H1, M1).
(§4) Rapidly, the tests were performed by Euroscreen (https://euroscreenfast.com/) with recombinant human G-coupled receptor-expressing cell lines using aequorin functional assays for serotonin 5-HT2A, 5-HT2B, 5-HT2C, 5-HT3, and 5-HT5A, adrenergic α1a and α1b, angiotensin AT1, cholesistokinin CCFK1, endothelin ETA, histamine H1, muscarinic M1 and M3, neurokinin NK1 and NK2, vasopressin V1a, and vasoactive intestinal peptide VPAC1 receptor analysis. Then, cAMP HTRF^TM assays were used to analyze serotonin 5-HT1A, 5-HT4E, 5-HT6, and 5-HT7, adenosine A1, A2A, and A3, adrenergic β1 and β2, cannabinoid CB1, dopamine D1, histamine H2, and neuropeptide Y NPY receptors. GTPγS^35 assays were used to analyze serotonin 5-HT1B, adrenergic α2a and α2b, dopamine D2, muscarinic M2 and M4, opioid δ, κ and µ, and somatostatine SST4 receptors.
(§5) Agonist and antagonist activities of the test compound are expressed as the percentage of the activity of the reference agonist at its EC100 concentration or the percentage of inhibition of the reference agonist activity at its EC80 concentration, respectively.
(§6) For the aequorin assays, different cell lines co-expressing the receptors were grown in specific culture media and incubated for 4 h with coelenterazine h. For agonist testing, cell suspensions were mixed with test or reference agonists in a 96-well plate. For antagonist testing, the reference agonist at its EC80 (final concentration) was injected to the mix the containing cells and the tested compound. The resulting emission of light was recorded using the Hamamatsu Functional Drug Screening System 6000 [19].

Another data set has as its target adrenergic α1b receptor (Homo sapiens, UniProt P35368). Put plainly: Off-target panel, aequorin functional assay. It counts as cell-based. Particulars: 10 µM, duplicate; % inhibition of reference agonist activity. As for the experimental part:
as §3, §4, §5, §6

The target in data set [1] is serotonin 5-HT2C receptor (Homo sapiens, UniProt P28335). Briefly: Off-target panel, aequorin functional assay. It counts as cell-based. As to conditions: 10 µM, duplicate; % inhibition of reference agonist activity. As for the experimental part:
as §3, §4, §5, §6

The target of a further data set is adrenergic α1a receptor (Homo sapiens, UniProt P35348). Briefly: Off-target panel, aequorin functional assay. Particulars: 10 µM, duplicate; % inhibition of reference agonist activity. It counts as cell-based. As for the experimental part:
as §3, §4, §5, §6

A further data set deals with T2, S1R-BiP complex (Cricetulus griseus, UniProt A0A3L7I3A5).
T2 construct: host or cells: CHO cells
Briefly: S1R-BiP complex dissociation, co-immunoprecipitation and BiP ELISA in CHO cells. Format: cell-based. As to conditions: for S1R-BiP complex levels: 10 µM. As for the experimental part:
The interaction between S1R and BiP provides a reliable assay to identify S1R ligands by monitoring the dynamics of the S1R-BiP complex. In this assay, the known S1R agonist PRE-084 and antagonist NE-100 were used as controls (Figure 3).
The ability of the compounds to promote dissociation of the S1R–BiP complex was assessed by Amylgen (Montferrier-sur-Lez, France) as described in [22, 23]. CHO cells were treated with the test compounds for 30 min at 37 °C, followed by crosslinking with dithiobis(succinimidyl propionate) (DSP; Thermo Scientific, Waltham, MA, USA). Cells were lysed after 15 min on ice, and the lysates were centrifuged. Supernatants were incubated overnight at 4 °C with an anti-S1R antibody (Abcam, Cambridge, UK), and then with Protein A-Sepharose (Invitrogen). After the first centrifugation, pellets were resuspended in radioimmunoprecipitation assay (RIPA) buffer, centrifuged again, and resuspended in 2× sample buffer/bMCE buffer. Following a third centrifugation, the supernatants were analyzed for BiP immunoreactivity using an ELISA kit (SEC343Mu, USCNK Life Sciences, Wuhan, China).
Figure 3 In vitro evaluation of agonist activity of compounds 2, 3, and 6: The effects of compounds 2, 3, and 6 at 1 and 10 µM on the S1R-BiP association after 30 min of incubation were analyzed by co-immunoprecipitation using an anti-S1R antibody (red). BiP levels were quantified by ELISA. PRE-084 (white) and NE-100 (black) served as the reference agonist and antagonist, respectively (10 µM). Agonist activity was confirmed by its blockade with NE-100 (black hatching). […] Data represent the mean ± SEM from n = 6 per condition. Statistical significance was assessed using Dunnett’s test: *** p < 0.0001, * p < 0.05 vs. untreated control; ### p < 0.0001, # p < 0.05 for NE-100 blockade.
A general note: An ELISA detects its analyte on a solid surface through an enzyme-linked reagent.

The nature of data set [2]: Cytotoxicity, MTT/MTS assay. Format: cell-based, human. Particulars: human, SH-SY5Y neuroblastoma cells; percentage of cell death after 24 h treatment at 100 µM (duplicate); read-out: SY5Y % Cytotox. As for the experimental part:
(§7) To assess potential cytotoxicity in CNS-relevant cells, human neuroblastoma (SH-SY5Y) cells were exposed to compounds 2–7 at concentrations up to 100 μM. Cell viability was measured using the MTT assay.
(§8) Cytotoxicity was assessed in human SH-SY5Y neuroblastoma cells cultured in Dulbecco’s Modified Eagle Medium (DMEM, Gibco, Thermo Fisher Scientific Inc., Waltham, MA, USA) supplemented with 2 mM L-glutamine, 100 μg/mL streptomycin, 100 IU/mL penicillin, 1 mM non-essential amino acids (all from Invitrogen, Thermo Fisher Scientific Inc., Waltham, MA, USA), and 10% (v/v) heat-inactivated fetal bovine serum (Sigma-Aldrich, Burlington, MA, USA). Cells were maintained at 37 °C in a humidified 5% CO2 atmosphere and serum-starved for 24 h to synchronize cultures before treatment with the test compounds at final concentrations of 100, 50, 10, 5, 1, 0.5, 0.1, or 0.05 μM (all in <0.1% DMSO). […] Absorbance was measured at 490 nm, and the results were expressed as a percentage relative to untreated control cells (set at 100%).

Data set [3] relates to SH-SY5Y neuroblastoma cells. Put plainly: Cytotoxicity, MTT/MTS assay. Format: cell-based, human. As to conditions: for IC50 (SY5Y)/ Ki (S1R): selectivity index, IC50 was considered > 100 µM. As for the experimental part: as §7, §8
In general terms: Tetrazolium assays rely on reduction of a dye to a coloured formazan, in cell work by metabolically active cells.

A further data set deals with D4.4 (Homo sapiens, UniProt P21917). Put plainly: Off-target panel of recombinant human receptors. It counts as cell-based. Particulars: 10 µM, duplicate; % inhibition of reference agonist activity. As for the experimental part: as §3, §5
For another data set, the target named is CXCR1 (Homo sapiens, UniProt P25024). Put plainly: Off-target panel of recombinant human receptors. Particulars: 10 µM, duplicate; % inhibition of reference agonist activity. Format: cell-based. As for the experimental part: as §3, §5
The target in another data set is T3, S2R (Homo sapiens, UniProt Q5BJF2).
T3 construct: For the S2R assay, Jurkat cell membranes (10–20 μg protein/tube) were incubated at room temperature for 1 h; host or cells: Jurkat cell membranes
Put plainly: S2R competitive radioligand binding, [3H]-DTG with excess (+)-pentazocine, Jurkat cell membranes. As to conditions: for pIC50: [3H]-DTG displacement with excess (+)-pentazocine, n = 2.
Description: as §1, §2

pIC50: −log10 of the molar value.

T3 sequence (Q5BJF2 whole entry): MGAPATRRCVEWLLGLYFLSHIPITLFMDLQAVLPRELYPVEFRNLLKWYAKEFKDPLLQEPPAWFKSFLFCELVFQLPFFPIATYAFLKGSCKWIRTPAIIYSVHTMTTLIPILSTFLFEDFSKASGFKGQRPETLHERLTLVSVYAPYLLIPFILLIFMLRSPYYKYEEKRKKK
T1 sequence (Q99720 whole entry): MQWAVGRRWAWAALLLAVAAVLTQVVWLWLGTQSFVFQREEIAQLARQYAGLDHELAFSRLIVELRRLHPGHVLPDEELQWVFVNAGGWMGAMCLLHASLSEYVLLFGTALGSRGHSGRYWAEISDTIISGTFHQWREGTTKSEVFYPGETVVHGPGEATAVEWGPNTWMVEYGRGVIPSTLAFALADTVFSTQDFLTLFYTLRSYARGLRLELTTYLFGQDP
T2 sequence (A0A3L7I3A5 1-223, one chain of several): as the sequence (Q99720 whole entry) above, with A4S, V5L, A12I, L15F, V25A, S34N, R39Q counted along it
Sequence of CXCR1 (P25024 whole entry): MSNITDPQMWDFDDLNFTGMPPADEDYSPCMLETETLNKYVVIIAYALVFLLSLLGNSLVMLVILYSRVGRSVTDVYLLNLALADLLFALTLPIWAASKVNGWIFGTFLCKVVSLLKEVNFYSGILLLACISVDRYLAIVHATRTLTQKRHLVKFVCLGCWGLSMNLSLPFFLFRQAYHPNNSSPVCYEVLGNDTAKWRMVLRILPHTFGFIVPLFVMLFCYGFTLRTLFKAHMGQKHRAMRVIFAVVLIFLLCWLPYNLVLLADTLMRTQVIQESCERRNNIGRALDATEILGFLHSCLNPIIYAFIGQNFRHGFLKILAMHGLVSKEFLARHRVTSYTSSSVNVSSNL
Sequence of serotonin 5-HT2C receptor (P28335 33-458): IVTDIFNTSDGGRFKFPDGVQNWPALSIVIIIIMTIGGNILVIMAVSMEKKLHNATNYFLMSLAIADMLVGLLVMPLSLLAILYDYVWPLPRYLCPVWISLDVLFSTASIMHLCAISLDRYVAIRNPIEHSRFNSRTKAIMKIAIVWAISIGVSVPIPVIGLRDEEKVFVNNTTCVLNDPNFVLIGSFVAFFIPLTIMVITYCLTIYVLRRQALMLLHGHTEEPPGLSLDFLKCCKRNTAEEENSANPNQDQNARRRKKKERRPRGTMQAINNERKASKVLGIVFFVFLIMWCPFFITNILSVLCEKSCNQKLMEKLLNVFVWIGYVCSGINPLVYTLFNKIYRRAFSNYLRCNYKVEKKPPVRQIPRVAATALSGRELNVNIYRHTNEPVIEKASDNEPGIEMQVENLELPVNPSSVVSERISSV
Sequence of adrenergic α1b receptor (P35368 whole entry): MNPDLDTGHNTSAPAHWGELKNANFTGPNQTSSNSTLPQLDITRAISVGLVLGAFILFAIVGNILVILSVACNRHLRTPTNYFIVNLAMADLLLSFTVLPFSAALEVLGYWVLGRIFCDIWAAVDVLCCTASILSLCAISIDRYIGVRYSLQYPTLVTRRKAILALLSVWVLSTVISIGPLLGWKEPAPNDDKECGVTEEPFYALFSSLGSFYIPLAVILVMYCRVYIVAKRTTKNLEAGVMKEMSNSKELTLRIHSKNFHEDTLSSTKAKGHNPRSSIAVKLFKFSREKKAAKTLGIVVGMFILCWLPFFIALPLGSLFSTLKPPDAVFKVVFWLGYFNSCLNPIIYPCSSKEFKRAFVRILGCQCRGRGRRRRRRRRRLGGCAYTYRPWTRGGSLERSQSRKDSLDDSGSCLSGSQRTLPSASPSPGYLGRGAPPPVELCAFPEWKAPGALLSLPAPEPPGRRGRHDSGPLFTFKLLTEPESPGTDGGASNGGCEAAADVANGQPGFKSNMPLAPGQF
Sequence of serotonin 5-HT3 receptor (P46098 24-478): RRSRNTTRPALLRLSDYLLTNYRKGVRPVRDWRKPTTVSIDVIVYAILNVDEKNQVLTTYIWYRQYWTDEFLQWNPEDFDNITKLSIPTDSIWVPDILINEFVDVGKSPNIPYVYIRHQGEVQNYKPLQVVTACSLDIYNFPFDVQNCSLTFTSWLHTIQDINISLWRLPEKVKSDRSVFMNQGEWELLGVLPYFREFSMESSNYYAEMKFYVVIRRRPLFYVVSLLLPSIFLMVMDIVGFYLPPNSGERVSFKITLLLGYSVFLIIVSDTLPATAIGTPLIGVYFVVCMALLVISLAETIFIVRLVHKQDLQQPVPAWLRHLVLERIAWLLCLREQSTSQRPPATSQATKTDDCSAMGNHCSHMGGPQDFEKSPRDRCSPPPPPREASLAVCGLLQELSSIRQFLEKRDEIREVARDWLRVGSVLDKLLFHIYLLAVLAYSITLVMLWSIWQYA
Sequence of adrenergic α1a receptor (P35348 whole entry): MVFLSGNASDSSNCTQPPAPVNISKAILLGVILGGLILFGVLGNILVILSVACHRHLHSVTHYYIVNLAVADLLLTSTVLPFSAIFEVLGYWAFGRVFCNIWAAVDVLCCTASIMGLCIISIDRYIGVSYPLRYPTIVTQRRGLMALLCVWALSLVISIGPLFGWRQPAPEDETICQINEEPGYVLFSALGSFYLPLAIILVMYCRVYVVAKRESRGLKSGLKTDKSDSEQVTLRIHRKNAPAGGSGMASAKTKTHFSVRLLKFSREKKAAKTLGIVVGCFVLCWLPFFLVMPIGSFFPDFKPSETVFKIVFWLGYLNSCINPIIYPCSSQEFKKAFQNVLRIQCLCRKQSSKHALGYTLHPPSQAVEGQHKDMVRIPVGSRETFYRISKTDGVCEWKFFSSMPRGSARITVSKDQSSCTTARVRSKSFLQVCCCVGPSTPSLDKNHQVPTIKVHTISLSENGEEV
Sequence of D4.4 (P21917 whole entry): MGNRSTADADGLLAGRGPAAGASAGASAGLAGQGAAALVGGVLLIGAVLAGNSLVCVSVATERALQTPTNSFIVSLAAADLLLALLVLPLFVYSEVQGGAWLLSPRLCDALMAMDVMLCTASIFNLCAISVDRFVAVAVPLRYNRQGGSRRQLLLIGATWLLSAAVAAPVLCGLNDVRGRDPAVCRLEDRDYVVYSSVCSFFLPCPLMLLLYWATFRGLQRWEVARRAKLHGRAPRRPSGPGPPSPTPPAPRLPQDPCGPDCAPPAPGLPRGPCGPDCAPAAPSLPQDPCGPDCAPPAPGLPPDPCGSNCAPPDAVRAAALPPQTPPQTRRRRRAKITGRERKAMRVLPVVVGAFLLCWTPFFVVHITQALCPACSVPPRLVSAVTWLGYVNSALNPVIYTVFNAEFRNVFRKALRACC

Regarding `CN(CCC(=O)NCc1ccc(Cl)cc1)Cc1ccccc1` [Compound 3, 3-(Benzylmethylamino)-N-(4-chlorobenzyl)propanamide], on S1R, the pIC50 is 8.48 and the “Ki (S2R)/ Ki (S1R)” value is listed as 241. Moreover, the “5-HT3 [b] antagonist activity” value on serotonin 5-HT3 receptor is reported as 72%. Also, on adrenergic α1b receptor, the “α1b [b] antagonist activity” value is recorded as 65%. For the same molecule, the “5-HT2C [b] antagonist activity” value in data set [1] was determined as 76%. For the same molecule, the “α1a [b] antagonist activity” value on adrenergic α1a receptor turned out to be 88%. In addition, at S1R-BiP complex (1 and 10 µM, 30 min incubation, CHO cells, n = 6), the “Dissociation of the S1R-BiP complex (in words)” value was “significant, dose-dependent dissociation”. For the same molecule, the “Dissociation of S1R-BiP complex in the presence of NE-100 (in words)” value at S1R-BiP complex (co-treatment with NE-100 (10 µM)) is listed as “completely inhibited”. The cytotoxicity at 24 h, 100 µM in data set [2] is 1%. For the same molecule, in [3], the “IC50 (SY5Y)/ Ki (S1R)” value is >58,823. At D4.4, the “D4.4 [b] antagonist activity” value is 84%. The “CXCR1 [b] antagonist activity” value at CXCR1 was found to be 54%. Also, the pIC50 on S2R was 6.27.

Consider `CCCN(CCC)CCc1ccc(OC)c(OCCc2ccccc2)c1` [NE-100, reference compound], for which the S1R-BiP complex levels at S1R-BiP complex (30 min incubation, CHO cells) is given as 90–100 % of the control.

For the molecule `O=C(OCCN1CCOCC1)C1(c2ccccc2)CCCCC1` [PRE-084, reference compound], the S1R-BiP complex levels result at S1R-BiP complex (30 min incubation, CHO cells) is “less than 50 % of the control”.

Take `CN(CCC(=O)NCc1ccc([N+](=O)[O-])cc1)Cc1ccccc1` [Compound 7, 3-(Benzylmethylamino)-N-(4-Nitrobenzyl)propanamide]: at S1R, the Ki amounted to 110 nM, the pIC50 was 6.66 and the “Ki (S2R)/ Ki (S1R)” value amounted to 59. The cytotoxicity at 24 h, 100 µM in [2] was 9%. In [3], the “IC50 (SY5Y)/ Ki (S1R)” value was greater than 909. The molecule further showed a pIC50 at S2R of 5.07.

Regarding “3-(Benzylmethylamino)-N-(3-bromobenzyl)propanamide [Compound 4]”, the Ki on S1R was greater than 200 nM; on S2R ([3H]-DTG with (+)-pentazocine, mean of 2–3 independent experiments), greater than 200 nM. Besides, in [3] (100 µM), the “SY5Y % Cytotox” value is given as 6%.

In the case of `CN(CCC(=O)NCc1ccc(Cl)cc1Cl)Cc1ccccc1` [Compound 5, 3-(Benzylmethylamino)-N-(2,4-Dichlorobenzyl)propanamide], the figures for the pIC50 on S1R and on S2R were 8.35 and 6.80, respectively. In addition, the “Ki (S2R)/ Ki (S1R)” value at S1R is given as 52. In addition, in data set [2], the cytotoxicity at 24 h, 100 µM turned out to be 37%. In addition, the “IC50 (SY5Y)/ Ki (S1R)” value in data set [3] is given as >43,478.
